Series [1] is described as follows: Clearance in Beagle dog at 10 mg/kg, iv administered as single dose by LC-MS/MS analysis. Type of series: ADME, organism-based, Canis lupus familiaris. The note with it: in vivo.
Series [2] is described as follows: Oral bioavailability in Beagle dog at 10 mg/kg administered as single dose by LC-MS/MS analysis. Type of series: ADME, organism-based, Canis lupus familiaris. The following applies: in vivo.
Series [3] is described as follows: Antiproliferative activity against human SR786 cells expressing ALK protein incubated for 72 hrs by cell titer-glo assay. The format is functional, cell-based. The following applies: SR-786, 72 h. On the technique in general: ATP-based viability assays read luminescence as a measure of living cells.
Series [4] in a line: Clearance in Harlan nu/nu mouse at 10 mg/kg, iv administered as single dose by LC-MS/MS analysis. Type of series: ADME, organism-based. The note with it: in vivo.
Series [5] in a line: AUC (infinity) in Sprague-Dawley rat at 10 mg/kg, po administered as single dose by LC-MS/MS analysis. The format is ADME, organism-based. The arrangement: dose 10 mg/kg, time infinity, route oral. The note with it: in vivo.
Another series concerns NCI-H2228. The series can be described thus: Antiproliferative activity against human NCI-H2228 cells expressing ALK protein incubated for 72 hrs by cell titer-glo assay. The following applies: NCI-H2228, 72 h.
Series [6] addresses T1, Tyrosine-protein kinase ZAP-70 (Homo sapiens, UniProt P43403).
T1 sequence (P43403 whole entry): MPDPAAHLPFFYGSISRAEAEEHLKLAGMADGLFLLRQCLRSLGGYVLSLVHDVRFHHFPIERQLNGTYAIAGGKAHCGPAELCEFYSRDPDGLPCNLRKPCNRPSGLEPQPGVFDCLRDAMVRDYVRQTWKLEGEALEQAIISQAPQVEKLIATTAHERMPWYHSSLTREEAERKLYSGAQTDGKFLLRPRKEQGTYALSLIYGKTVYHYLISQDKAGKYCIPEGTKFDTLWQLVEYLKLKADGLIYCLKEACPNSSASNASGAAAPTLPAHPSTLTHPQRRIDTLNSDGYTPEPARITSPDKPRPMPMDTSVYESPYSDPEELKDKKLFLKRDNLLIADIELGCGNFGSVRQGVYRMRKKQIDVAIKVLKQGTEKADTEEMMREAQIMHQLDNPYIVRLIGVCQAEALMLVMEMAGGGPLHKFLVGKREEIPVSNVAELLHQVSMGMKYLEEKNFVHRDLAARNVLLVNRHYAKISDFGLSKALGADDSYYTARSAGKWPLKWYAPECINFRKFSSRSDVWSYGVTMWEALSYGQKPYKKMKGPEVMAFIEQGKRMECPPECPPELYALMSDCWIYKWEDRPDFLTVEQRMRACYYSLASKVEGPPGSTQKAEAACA
As to the kind of experiment: Inhibition of ZAP70 (unknown origin) in presence of gamma33-ATP.

For series [7], the target named is T2, Tyrosine-protein kinase JAK3 (Homo sapiens, UniProt P52333).
T2 sequence (P52333 whole entry): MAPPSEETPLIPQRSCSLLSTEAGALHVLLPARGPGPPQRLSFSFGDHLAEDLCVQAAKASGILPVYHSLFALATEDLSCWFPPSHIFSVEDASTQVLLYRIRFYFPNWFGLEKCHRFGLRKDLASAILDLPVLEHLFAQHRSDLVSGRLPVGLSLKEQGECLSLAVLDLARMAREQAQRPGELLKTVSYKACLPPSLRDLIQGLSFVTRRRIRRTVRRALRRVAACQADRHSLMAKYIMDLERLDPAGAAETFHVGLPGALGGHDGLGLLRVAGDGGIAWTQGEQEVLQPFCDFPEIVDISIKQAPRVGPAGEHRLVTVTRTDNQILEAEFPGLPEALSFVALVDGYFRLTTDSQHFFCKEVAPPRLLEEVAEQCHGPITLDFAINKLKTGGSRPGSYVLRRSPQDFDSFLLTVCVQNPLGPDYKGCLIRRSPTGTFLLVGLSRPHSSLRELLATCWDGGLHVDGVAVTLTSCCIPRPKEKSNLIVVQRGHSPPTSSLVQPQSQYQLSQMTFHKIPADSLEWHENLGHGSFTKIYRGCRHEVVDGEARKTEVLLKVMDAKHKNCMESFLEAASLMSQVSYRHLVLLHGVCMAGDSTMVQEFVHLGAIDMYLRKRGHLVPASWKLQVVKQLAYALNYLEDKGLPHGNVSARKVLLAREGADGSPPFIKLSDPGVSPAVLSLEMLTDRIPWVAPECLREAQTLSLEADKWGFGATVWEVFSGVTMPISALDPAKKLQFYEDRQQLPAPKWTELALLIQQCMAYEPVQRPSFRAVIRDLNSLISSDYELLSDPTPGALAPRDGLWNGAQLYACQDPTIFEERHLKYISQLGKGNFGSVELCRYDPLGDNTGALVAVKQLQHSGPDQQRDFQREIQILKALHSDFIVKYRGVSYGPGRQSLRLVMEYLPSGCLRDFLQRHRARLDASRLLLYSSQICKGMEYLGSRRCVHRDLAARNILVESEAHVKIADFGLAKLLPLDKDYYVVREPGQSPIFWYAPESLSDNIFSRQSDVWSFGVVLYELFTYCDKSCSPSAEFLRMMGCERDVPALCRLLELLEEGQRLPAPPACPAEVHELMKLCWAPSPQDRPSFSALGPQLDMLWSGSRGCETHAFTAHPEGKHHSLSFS
The series can be described thus: Inhibition of JAK3 (unknown origin) in presence of gamma33-ATP.

A short description of series [8]: Half life in Sprague-Dawley rat at 10 mg/kg, iv administered as single dose by LC-MS/MS analysis. Type of series: ADME, organism-based. The note with it: in vivo.
Series [9] is described as follows: Solubility of compound at pH 7 buffer. Type of series: physicochemical.
Series [10] in a line: Intrinsic clearance in human liver microsomes at […] preincubated for 5 mins followed by NADPH addition measured after 5 to 30 mins by LC-MS/MS analysis. The format is ADME. The note with it: read-out: CLH. For orientation: Liver microsomes are a subcellular fraction often used to study metabolism.
The nature of series [11]: Oral bioavailability in Sprague-Dawley rat at 10 mg/kg administered as single dose by LC-MS/MS analysis. Type of series: ADME, organism-based. The note with it: in vivo.

≈ marks a conversion by molar mass, not a printed value.

In general, clearance refers to the volume of plasma or blood freed of the substance per unit of time. High values mean a high capacity for elimination, low ones a low capacity for elimination. Usually bioavailability stands for dose-corrected exposure relative to a reference, in per cent. A lower bioavailability goes with poor availability. In general, IC50 refers to the midpoint of a concentration-inhibition curve. For orientation: AUC(0-inf) means the area under the concentration-time curve extrapolated to infinity. Read a low AUC(0-inf) as low exposure. The half-life is the time in which the quantity being followed falls by half. Low values mean fast loss, high ones slow loss. What is called solubility is the dissolved amount per volume that the medium holds. A high value points to a readily soluble substance. As to `CN1CCN(c2ccc(C(=O)Nc3n[nH]c4ccc(Cc5cc(F)cc(F)c5)cc34)c(NC3CCOCC3)c2)CC1` [ENTRECTINIB], the clearance in [1] worked out at 17.5 mL/min/kg; in [4], 13.5 mL/min/kg. The bioavailability was 32% in series [2] and 43% in [11]. Further, the half-maximal inhibitory concentration (IC50) in series [3] is 81 nM; in the series on NCI-H2228, 68 nM; in series [6] it was greater than 10000 nM; in series [7], 349 nM. Moreover, the AUC(0-inf) in series [5] was 5.13 µM·h. Also, the half-life in series [8] was 3.5 h. The solubility in [9] worked out at 20 µM (≈ 11.2 µg/mL). In series [10], the CLint scaled is 33 mL/min/kg.
